Earlier results as cited in the PKSmart pharmacokinetics tables (Seal et al. 2025).

Test: Lombardo, Berellini, Obach 2018, Drug Metab Dispos 46:1466, doi 10.1124/dmd.118.082966
Details: human; for MRT / Vd / clearance / half-life: in vivo, iv; for fraction unbound: plasma

Structure (SMILES): COc1ccc(CC(NC(=O)CC(C)(C)N)C(=O)NC(Cc2c[nH]cn2)C(=O)N[C@@H](CC2CCCCC2)[C@@H](O)[C@@H](O)CC(C)C)cc1 (some centres undefined)
- MRT: 3.1 h
- Vd: 0.11 L/kg
- clearance: 0.45 mL/min/kg
- half-life: 1.72 h
- fraction unbound: 0.07

Structure (SMILES): Cc1[nH]cnc1CN1CCc2c(c3ccccc3n2C)C1=O
- MRT: 2.1 h
- Vd: 1.1 L/kg
- clearance: 8.7 mL/min/kg
- half-life: 1.6 h

Structure (SMILES): CCC(C)C(=O)O[C@H]1C[C@@H](C)C=C2C=C[C@H](C)[C@H](CC[C@@H](O)C[C@@H](O)CC(=O)O)[C@H]21 (some centres undefined)
- MRT: 1.3 h
- Vd: 0.87 L/kg
- clearance: 7.2 mL/min/kg
- half-life: 1.4 h
- fraction unbound: 0.043

Structure (SMILES): CCN(CC)CCNC(=O)c1cc(Br)c(N)cc1OC
- MRT: 4 h
- Vd: 3.1 L/kg
- clearance: 13 mL/min/kg
- half-life: 2.9 h
- fraction unbound: 0.6

Structure (SMILES): O=C(NCCN1CCN=C1c1ccncc1)Nc1ccc(C(=O)O)cc1
- MRT: 3.52 h
- Vd: 0.35 L/kg
- clearance: 1.67 mL/min/kg
- half-life: 4.9 h

Structure (SMILES): CN(CC(O)=NO)C(=O)C1CCCCC1C(=O)O (centres undefined)
- MRT: 2.8 h
- Vd: 1 L/kg
- clearance: 6.3 mL/min/kg
- half-life: 2.6 h
- fraction unbound: 1

Structure (SMILES): C[C@@H](NCCCc1cccc(C(F)(F)F)c1)c1cccc2ccccc12
- MRT: 16 h
- Vd: 17.6 L/kg
- clearance: 18.3 mL/min/kg
- half-life: 19.9 h
- fraction unbound: 0.05

Structure (SMILES): NS(=O)(=O)c1cc(C2(O)NC(=O)c3ccccc32)ccc1Cl (centres undefined)
- MRT: 43 h
- Vd: 3.9 L/kg
- clearance: 1.5 mL/min/kg
- half-life: 36 h

Structure (SMILES): C[C@@H](O)C1C(=O)N2C(C(=O)O)=C(SCCNC=N)C[C@H]12 (some centres undefined)
- MRT: 1.3 h
- clearance: 3 mL/min/kg
- half-life: 0.95 h

Structure (SMILES): O=C(/C=C/c1ccc(O)c(O)c1)O[C@@H]1C[C@](OC(=O)/C=C/c2ccc(O)c(O)c2)(C(=O)O)C[C@@H](O)[C@H]1O
- MRT: 1.5 h
- Vd: 0.79 L/kg
- clearance: 8.7 mL/min/kg
- half-life: 1.37 h

Structure (SMILES): CC1C(=O)O[C@H]2[C@H](O)C34[C@H]5C[C@@H](C(C)(C)C)C36C(O)C(=O)O[C@H]6OC4(C(=O)O5)[C@@]12O (some centres undefined)
- MRT: 6.6 h
- Vd: 0.91 L/kg
- clearance: 2.3 mL/min/kg
- half-life: 5.2 h
- fraction unbound: 0.8

Structure (SMILES): CN(C)CCn1nnnc1SCC1=C(C(=O)O)N2C(=O)C(NC(=O)Cc3csc(N)n3)[C@H]2SC1 (some centres undefined)
- MRT: 0.76 h
- Vd: 0.26 L/kg
- clearance: 5.8 mL/min/kg
- half-life: 0.84 h
- fraction unbound: 0.5

Structure (SMILES): CCN(CC)CCCC(C)Nc1ccnc2cc(Cl)ccc12 (centres undefined)
- MRT: 740 h
- Vd: 140 L/kg
- clearance: 4.1 mL/min/kg
- half-life: 570 h

Structure (SMILES): CC(C)=CCN1Cc2cc(Cl)cc3[nH]c(=S)n(c23)C[C@@H]1C
- MRT: 35.2 h
- Vd: 22 L/kg
- clearance: 10.4 mL/min/kg
- half-life: 26 h

Structure (SMILES): Cn1nnnc1SCC1=C(C(=O)O)N2C(=O)C(=NC(=O)C(NOCC(=O)O)c3cc[nH]n3)[C@H]2SC1 (some centres undefined)
- MRT: 1.8 h
- Vd: 0.22 L/kg
- clearance: 1.83 mL/min/kg
- half-life: 1.33 h

Structure (SMILES): CCc1cc2c(cc1CC)CC(NC[C@H](O)c1ccc(O)c3[nH]c(=O)ccc13)C2
- MRT: 72.4 h
- Vd: 19.4 L/kg
- clearance: 4.48 mL/min/kg
- half-life: 92.5 h

Structure (SMILES): C=CCC1=CC(C)C[C@H](C)C[C@H](OC)[C@H]2O[C@@](O)(C(=O)C(=O)N3CCCCC3C(=O)O[C@H](/C(C)=C/[C@@H]3CC[C@@H](O)[C@H](OC)C3)[C@H](C)[C@@H](O)CC1=O)[C@H](C)C[C@@H]2OC (some centres undefined)
- MRT: 27 h
- Vd: 1.2 L/kg
- clearance: 0.7 mL/min/kg
- half-life: 26 h

Structure (SMILES): CCC#CC[C@H](C)[C@H](O)C#C[C@H]1[C@H]2CC(=CCOCCCC(=O)O)C[C@H]2C[C@H]1O
- MRT: 0.59 h
- Vd: 2.4 L/kg
- clearance: 66.2 mL/min/kg
- half-life: 0.41 h

Structure (SMILES): CCCCN1CCCC1C(=O)Nc1c(C)cc(C)cc1C (centres undefined)
- MRT: 1.51 h
- Vd: 1.73 L/kg
- clearance: 19.2 mL/min/kg
- half-life: 1.58 h

Structure (SMILES): CC(CN1c2ccccc2Sc2ccccc21)N(C)C (centres undefined)
- fraction unbound: 0.09

Structure (SMILES): CCCCCCCCc1ccc(CCC(N)(CO)CO)cc1
- MRT: 189 h
- Vd: 17.3 L/kg
- clearance: 1.53 mL/min/kg
- half-life: 144 h
- fraction unbound: 0.002

Structure (SMILES): CO[C@@H]1C[C@@](C)(O)Cc2cc3c(c(O)c21)C(=O)c1c(O)cc2c(c1C3=O)O[C@@H]1O[C@]2(C)[C@@H](O)[C@@H](N(C)C)[C@@H]1O
- MRT: 13.1 h
- Vd: 9.14 L/kg
- clearance: 11.6 mL/min/kg
- half-life: 13.2 h

Structure (SMILES): CN(C)CCNC(=O)c1cccc2cc3ccccc3nc12
- MRT: 3.49 h
- Vd: 3.41 L/kg
- clearance: 16.3 mL/min/kg
- half-life: 2.08 h
- fraction unbound: 0.03

Structure (SMILES): C[n+]1ccccc1C=NO
- MRT: 1.5 h
- Vd: 0.8 L/kg
- clearance: 9 mL/min/kg
- half-life: 1.4 h
- fraction unbound: 1

Structure (SMILES): COc1cc2c(cc1OC)C(Cc1cc(OC)c(OC)c(OC)c1)[N+](C)(CCCOC(=O)CC/C=C/CCC(=O)OCCC[N+]1(C)CCc3cc(OC)c(OC)cc3C1Cc1cc(OC)c(OC)c(OC)c1)CC2 (centres undefined)
- MRT: 0.87 h
- Vd: 0.27 L/kg
- clearance: 5.2 mL/min/kg
- half-life: 0.83 h
- fraction unbound: 0.7

Structure (SMILES): CC[C@@H](CO)NC(=O)C1C=C2c3cccc4[nH]cc(c34)C[C@H]2N(C)C1 (some centres undefined)
- MRT: 2.25 h
- Vd: 0.96 L/kg
- clearance: 7.18 mL/min/kg
- half-life: 1.85 h

Structure (SMILES): CC[C@H]1OC(=O)C(C)[C@@H](O[C@H]2C[C@@](C)(OC)[C@@H](O)[C@H](C)O2)[C@H](C)[C@@H](O[C@@H]2O[C@H](C)C[C@H](N(C)C)[C@H]2O)[C@](C)(O)C[C@@H](C)CN(C)[C@H](C)[C@@H](O)[C@]1(C)O (some centres undefined)
- MRT: 57 h
- Vd: 33 L/kg
- clearance: 10 mL/min/kg
- half-life: 69 h

Structure (SMILES): O=C(/C=C/c1ccc(O)c(O)c1)O[C@@H]1[C@H](O)C[C@@](O)(C(=O)O)C[C@H]1OC(=O)/C=C/c1ccc(O)c(O)c1
- MRT: 0.3 h
- Vd: 0.63 L/kg
- clearance: 34.6 mL/min/kg
- half-life: 0.57 h

Structure (SMILES): Nc1nc(=O)c2c([nH]1)NC[C@H](CNc1ccc(C(=O)NC(CCC(=O)O)C(=O)O)cc1)N2C=O (some centres undefined)
- MRT: 1.1 h
- Vd: 0.27 L/kg
- clearance: 4.1 mL/min/kg
- half-life: 1.1 h

Structure (SMILES): CCOC(=O)c1ccc(C#Cc2ccc3c(c2)C(C)(C)CCS3)nc1
- MRT: 1.56 h
- Vd: 3.55 L/kg
- clearance: 37.2 mL/min/kg
- half-life: 6.22 h

Structure (SMILES): Cc1ncc([N+](=O)[O-])n1C[C@H](O)CCl
- MRT: 18.1 h
- Vd: 1.16 L/kg
- clearance: 1.08 mL/min/kg
- half-life: 12 h
- fraction unbound: 0.88

Structure (SMILES): CON=C(C(=O)NC1C(=O)N2C(C(=O)[O-])=C(C[N+]34CCC(C(N)=O)(CC3)CC4)CSC12)c1nsc(N)n1 (centres undefined)
- MRT: 2.6 h
- Vd: 0.27 L/kg
- clearance: 1.7 mL/min/kg
- half-life: 2.2 h

Structure (SMILES): NCCCNc1ccc2c(CNCCO)nn3c4c(O)ccc(O)c4c(=O)c1c23
- MRT: 11 h
- Vd: 12 L/kg
- clearance: 18 mL/min/kg
- half-life: 32 h

Structure (SMILES): O=C1CN=C(c2ccccc2)c2cc([N+](=O)[O-])ccc2N1
- MRT: 33 h
- Vd: 1.7 L/kg
- clearance: 0.86 mL/min/kg
- half-life: 26 h
